Measured values reported in patent publication US20240245677A1, “SELECTED COMPOUNDS FOR TARGETED DEGRADATION OF BRD9” (C4 THERAPEUTICS, INC., priority 2021, published 2024).
“And” between values parts separate entries of the source, which are not always exact repeats. Identical values can stand only once. Like-named read-outs stand apart in the source and are kept apart here.

Assay: Pharmacokinetic study in male CD1 mice
Format: in vivo, mouse
Settings: for concentration at 0.033 h / concentration at 0.33 h / concentration at 1 h / concentration at 2 h / concentration at 4 h / concentration at 8 h / concentration at 24 h / AUC(0-t): male, CD1, mouse
Description: The pharmacokinetic (PK) profile in plasma of Compound 1 was determined in male CD1 mice following single dose intravenous (IV) (2 mg/kg) and per os (PO) (10 mg/kg) administration. This study was performed under non-GLP conditions, and unless otherwise stated, all analytical reagents were at least standard laboratory reagent grade, and deionized water was prepared at the study site. The characteristics of Compound 1 used in this study were as follows: molecular weight of base, 710.78; molecular weight of Compound 1 with salt, 824.81; purity on as is basis, 99.28%. All animals were housed in cages with clean bedding and maintained and monitored for good health and at the discretion of the laboratory animal veterinarian. Certified rodent diet was provided, and water was available ad libitum. […] Normal healthy animals certified by the attending veterinarian were selected and acclimatized for a minimum of three days prior to initiation of the study. Animals were identified by body markings. Test animals were weighed prior to drug administration, and the standard weight of the animals used was 30 grams. The animals were divided into two groups, IV group and PO group, with each group containing 3 test animals each and 2 spare animals. The IV dose was administered by intravenous injection into the tail vein and PO dose was administered via oral gavage. The dosing volume was 5 mL/kg body weight for both groups. The dosing concentration was 0.4 mg/mL for the IV group and 2 mg/mL for the PO group. The animals were in fasted state during the study. For both dosing groups, blood was collected from the saphenous vein (serial sampling) for plasma isolation at 0.033, 0.33, 1, 2, 4, 6, 8, and 24 hour timepoints. The anti-coagulant solution used was 6% (v/v) sodium citrate (200 mM, pH 4.79). For sample collection, the mice were restrained, and the back of the hind leg was shaved until the saphenous vein was visible. The hind limb was immobilized, and slight pressure was applied gently above the knee joint. While taking aseptic precautions, the vein was punctured using a 20 G needle and 20-30 μL of blood was collected in pre-labeled pre-chilled tubes. After blood collection from each animal, the sample from that animal was recorded in the sample collection sheet. After collection of each blood sample, the blood sample was stored on ice prior to centrifugation. Blood samples were centrifuged within 0.5 hours of collection to separate plasma. Centrifugation was conducted at 2500×g for 15 minutes at 4° C. The plasma was separated and transferred to pre-labeled micro-centrifuge tubes and promptly frozen at -80° C.±10° C. and stored until bioanalysis was performed. Each sample was identified by test compound, group, animal number, and collection time point. A fit-for-purpose bioanalytical method was developed for analyzing the plasma samples. One set of nine standards was run before the sample batch and was used for plotting the calibration curve. Quality control (QC) samples were prepared at a minimum of three concentrations, i.e., LQC (not more than 5 times to that of lowest standard concentration), HQC (not less than 75% of the highest standard concentration), and MQC (between the low and high concentration). A minimum of 6 QC samples were prepared (three concentrations in duplicate). One set of QC (LQC, MQC and HQC) samples were analyzed before and after the sample batch. Samples were analyzed by Exion AD (Sciex, Framingham, MA, USA) high-pressure liquid chromatography (HPLC) system followed by tandem mass spectroscopy analysis (MS/MS) with Q TRAP 4500 (Sciex, Framingham, MA). The samples were resolved on a Kinetex® EVO C18 4.5*50 mm, 5 μm column (Phenomenex, Inc., Torrance, CA, USA). […] The flow rate was set at 1 mL/min. […] A positive electrospray ionization (ESI) method was used for detecting analytes and internal standard by mass spectroscopy. The MRM conditions were […]

[1] = mouse, plasma, male CD1 mice, 2 mg/kg IV, Mean
[2] = mouse, plasma, male CD1 mice, 10 mg/kg PO, Mean

COc1cc(-c2cn(C)c(=O)c(C)c2C)cc(OC)c1CN1CC[C@H](N2CCN(c3ccc(N[C@H]4CCC(=O)NC4=O)cc3F)CC2)C(F)(F)C1 [Compound 1, (S)-3-((4-(4-((S)-1-(2,6-dimethoxy-4-(1,4,5-trimethyl-6-oxo-1,6-dihydropyridin-3-yl)benzyl)-3,3-difluoropiperidin-4-yl)piperazin-1-yl)-3-fluorophenyl)amino)-piperidine-2,6-dione]
Plasma Concentration, individual mice (2 mg/kg IV, 0.033 h): 1282.85 ng/mL and 1230.25 ng/mL | Plasma Concentration, individual mice (2 mg/kg IV, 0.33 h): 1069.92 ng/mL and 907.03 ng/mL | Plasma Concentration, individual mice (2 mg/kg IV, 1 h): 778.91 ng/mL and 554.87 ng/mL | Plasma Concentration, individual mice (2 mg/kg IV, 2 h): 530.20 ng/mL and 551.12 ng/mL | Plasma Concentration, individual mice (2 mg/kg IV, 4 h): 402.36 ng/mL and 398.41 ng/mL | Plasma Concentration, individual mice (2 mg/kg IV, 8 h): 230.84 ng/mL and 279.05 ng/mL | Plasma Concentration, individual mice (2 mg/kg IV, 24 h): 8.14 ng/mL and 10.81 ng/mL | Plasma Concentration, individual mice (10 mg/kg PO, 0.033 h): 113.39 ng/mL and 45.23 ng/mL and 29.34 ng/mL | Plasma Concentration, individual mice (10 mg/kg PO, 0.33 h): 1350.89 ng/mL and 1805.33 ng/mL | Plasma Concentration, individual mice (10 mg/kg PO, 1 h): 3702.63 ng/mL and 3513.39 ng/mL | Plasma Concentration, individual mice (10 mg/kg PO, 2 h): 3236.77 ng/mL and 3069.59 ng/mL | Plasma Concentration, individual mice (10 mg/kg PO, 4 h): 1775.48 ng/mL and 1635.06 ng/mL | Plasma Concentration, individual mice (10 mg/kg PO, 8 h): 1094.97 ng/mL and 687.92 ng/mL | Plasma Concentration, individual mice (10 mg/kg PO, 24 h): 40.19 ng/mL and 35.09 ng/mL | CI (male CD1 mice, 2 mg/kg IV, Mean): 6.201 mL/min/kg | concentration at 0.033 h (plasma, intravenous, 2 mg/kg, 2 mg/kg IV, 0.033 h, read-out: Plasma Concentration, Average): 1400 ng/mL | concentration at 0.033 h (plasma, intravenous, 2 mg/kg, 2 mg/kg IV, 0.033 h, read-out: Plasma Concentration, individual mice): 1690 ng/mL | concentration at 0.33 h (plasma, intravenous, 2 mg/kg, 2 mg/kg IV, 0.33 h, read-out: Plasma Concentration, Average): 1090 ng/mL | concentration at 0.33 h (plasma, intravenous, 2 mg/kg, 2 mg/kg IV, 0.33 h, read-out: Plasma Concentration, individual mice): 1300 ng/mL | concentration at 1 h (plasma, intravenous, 2 mg/kg, 2 mg/kg IV, 1 h, read-out: Plasma Concentration, Average): 760 ng/mL | concentration at 1 h (plasma, intravenous, 2 mg/kg, 2 mg/kg IV, 1 h, read-out: Plasma Concentration, individual mice): 947 ng/mL | concentration at 2 h (plasma, intravenous, 2 mg/kg, 2 mg/kg IV, 2 h, read-out: Plasma Concentration, Average): 630 ng/mL | concentration at 2 h (plasma, intravenous, 2 mg/kg, 2 mg/kg IV, 2 h, read-out: Plasma Concentration, individual mice): 809 ng/mL | concentration at 4 h (plasma, intravenous, 2 mg/kg, 2 mg/kg IV, 4 h, read-out: Plasma Concentration, Average): 456 ng/mL | concentration at 4 h (plasma, intravenous, 2 mg/kg, 2 mg/kg IV, 4 h, read-out: Plasma Concentration, individual mice): 567 ng/mL | concentration at 8 h (plasma, intravenous, 2 mg/kg, 2 mg/kg IV, 8 h, read-out: Plasma Concentration, Average): 256 ng/mL | concentration at 8 h (plasma, intravenous, 2 mg/kg, 2 mg/kg IV, 8 h, read-out: Plasma Concentration, individual mice): 257 ng/mL | concentration at 24 h (plasma, intravenous, 2 mg/kg, 2 mg/kg IV, 24 h, read-out: Plasma Concentration, Average): 10.2 ng/mL | concentration at 24 h (plasma, intravenous, 2 mg/kg, 2 mg/kg IV, 24 h, read-out: Plasma Concentration, individual mice): 11.5 ng/mL | AUC(0-t) (plasma, iv, 2 mg/kg, male CD1 mice, 2 mg/kg IV, Mean): 5390 ng·h/mL | concentration at 0.033 h (plasma, oral, 10 mg/kg, 10 mg/kg PO, 0.033 h, read-out: Plasma Concentration, Average): 62.7 ng/mL | concentration at 0.33 h (plasma, oral, 10 mg/kg, 10 mg/kg PO, 0.33 h, read-out: Plasma Concentration, Average): 1750 ng/mL | concentration at 0.33 h (plasma, oral, 10 mg/kg, 10 mg/kg PO, 0.33 h, read-out: Plasma Concentration, individual mice): 2100 ng/mL | concentration at 1 h (plasma, oral, 10 mg/kg, 10 mg/kg PO, 1 h, read-out: Plasma Concentration, Average): 3370 ng/mL | concentration at 1 h (plasma, oral, 10 mg/kg, 10 mg/kg PO, 1 h, read-out: Plasma Concentration, individual mice): 2890 ng/mL | concentration at 2 h (plasma, oral, 10 mg/kg, 10 mg/kg PO, 2 h, read-out: Plasma Concentration, Average): 3150 ng/mL | concentration at 2 h (plasma, oral, 10 mg/kg, 10 mg/kg PO, 2 h, read-out: Plasma Concentration, individual mice): 3150 ng/mL | concentration at 4 h (plasma, oral, 10 mg/kg, 10 mg/kg PO, 4 h, read-out: Plasma Concentration, Average): 1770 ng/mL | concentration at 4 h (plasma, oral, 10 mg/kg, 10 mg/kg PO, 4 h, read-out: Plasma Concentration, individual mice): 1880 ng/mL | concentration at 8 h (plasma, oral, 10 mg/kg, 10 mg/kg PO, 8 h, read-out: Plasma Concentration, Average): 983 ng/mL | concentration at 8 h (plasma, oral, 10 mg/kg, 10 mg/kg PO, 8 h, read-out: Plasma Concentration, individual mice): 1170 ng/mL | concentration at 24 h (plasma, oral, 10 mg/kg, 10 mg/kg PO, 24 h, read-out: Plasma Concentration, Average): 37.8 ng/mL | concentration at 24 h (plasma, oral, 10 mg/kg, 10 mg/kg PO, 24 h, read-out: Plasma Concentration, individual mice): 38.2 ng/mL | AUC(0-t) (plasma, po, 10 mg/kg, male CD1 mice, 10 mg/kg PO, Mean, first AUClast column): 20000 ng·h/mL | AUC(0-t) (plasma, po, 10 mg/kg, male CD1 mice, 10 mg/kg PO, Mean, second AUClast column): 20200 ng·h/mL | AUC(0-inf) [1]: 5450 ng·h/mL | C0 [1]: 1440 ng/mL | MRT last [1]: 5.15 h | half-life [1]: 3.65 h | Vd (mouse, plasma, male CD1 mice, 2 mg/kg IV, Mean, read-out: Vdss): 2.01 L/kg | Cmax [2]: 3460 ng/mL | MRT last [2]: 5.38 h | Tmax [2]: 1.33 h | bioavailability [2]: 74.1% | half-life [2]: 3.54 h
